From ChEMBL document CHEMBL1142772, “Discovery and SAR of biaryl piperidine MCH1 receptor antagonists through solid-phase encoded combinatorial synthesis” (Bioorg Med Chem Lett, 2005)

Test: Area under curve (time =0-6 hours)
Assay type: ADME
Parameters: time < 6 hr
Details: rat

CN1CCC(CNC(=O)Nc2cc(Cl)cc(Cl)c2)(c2ccc(-c3cccnc3)cc2)CC1
AUC: 1.4 µM
